# Literature values, collected in patent US20160199302A1, “Pharmaceutical Composition Comprising Temozolomide With Improved Stability and Process for Manufacturing the Same” (Samyang Biopharmaceuticals Corporation, priority 2012, published 2016).
# Details: background
smiles,measurement,value
"Cn1nnc2c(C(N)=O)ncn2c1=O [temozolomide, 3,4-dihydro-3-methyl-4-oxoimidazo[5,1-d]-as-tetrazine-8-carboxamide]",Solubility in water,water-insoluble
